Patent publication US12410211B2, “V1A receptor partial agonist and method of use” (PharmaIN Corporation, priority 2020, dated 2025)
Like-named read-outs stand apart in the source and are kept apart here. Marks after values point to notes of the source that are not given here. Where a SMILES comes first, the peptide text is derived from it. Bridges are numbered along the chain shown (N, C = ends). [ ]: non-standard residue; d: D form. Aad = N[C@@H](CCCC(=O)O)C(=O)O; Dap = NC[C@H](N)C(=O)O; Mpa = O=C(O)CCS

Columns and labels:
V1a receptor = target: T1, V1a receptor (Homo sapiens, UniProt P37288); experiment: V1a Human Vasopressin GPCR Cell Based Agonist Calcium Flux Assay; settings: for Emax: read-out: V1a Highest agonist effect (% of AVP)
T1 construct: host or cells: CHO cells
T1 sequence (P37288 whole entry): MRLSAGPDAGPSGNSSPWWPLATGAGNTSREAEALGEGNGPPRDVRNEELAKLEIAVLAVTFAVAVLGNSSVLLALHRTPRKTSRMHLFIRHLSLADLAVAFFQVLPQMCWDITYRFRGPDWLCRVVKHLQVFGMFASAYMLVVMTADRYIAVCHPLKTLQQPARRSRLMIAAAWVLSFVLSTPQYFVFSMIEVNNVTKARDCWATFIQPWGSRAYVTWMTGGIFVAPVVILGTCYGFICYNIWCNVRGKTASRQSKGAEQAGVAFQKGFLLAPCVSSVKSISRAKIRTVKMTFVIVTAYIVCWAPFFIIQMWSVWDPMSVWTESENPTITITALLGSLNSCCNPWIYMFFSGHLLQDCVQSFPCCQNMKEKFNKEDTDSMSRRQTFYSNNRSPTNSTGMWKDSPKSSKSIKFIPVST
Method: Peptides of Formula (I) include Mpa-Tyr-Phe-Hgn-Asn-Cys-Pro-Lys(X)a-Gly-NH2 [SEQ ID NO. 24]; where (X)a is a peptide with “a” residues and each residue X is independently selected from Gly, and a D- or L-amino acid version of Ala, Lys, Orn, Glu, and Asp, where “a” is 0-10. V1a Human Vasopressin GPCR Cell Based Agonist Calcium Flux Assay were conducted at Eurofins Cerep SA (France) on a fee for service basis. Human recombinant CHO cells expressing human V1 receptors were distributed in microplates. Intracellular calcium signal was detected by fluorimetry, and the signal was acquired before and after addition of a known agonist concentration. The following agonist concentrations were tested (nM); 0.0128, 0.064, 0.32, 1.6, 8, 40, 200, and 1,000. […] All assays were performed in duplicate. Changes in fluorescence intensity reflected changes in the concentration of free cytosolic calcium. […] The half-maximal effective concentration (EC50) was determined by a non-linear regression analysis of the concentration-response curves generated with mean replicate values using Hill equation curve fitting (Cerep, I'Evescault, France).
V1a Human Vasopressin GPCR Cell Based Agonist Calcium Flux Assay were conducted using human recombinant CHO cells expressing human V1 receptor. Briefly, human recombinant CHO cells expressing human V1 receptor were distributed in microplates at 4.5×10^4 cells/well. The fluorescent probe (Fluo4 Direct, Invitrogen) mixed with probenicid in HBSS buffer (Invitrogen) complemented with 20 mM HEPES (Invitrogen) (pH 7.4) is then added into each well and equilibrated with the cells for 60 min at 37° C. then 15 min at 22° C. Thereafter, the assay plates are positioned in a microplate reader (CellLux, PerkinElmer) which is used for the addition of the test compound, reference agonist or HBSS buffer (basal control), and the measurements of changes in fluorescence intensity which varies proportionally to the free cytosolic Ca^2+ ion concentration. The following agonist concentrations were tested (nM), 0.0128, 0.064, 0.32, 1.6, 8, 40, 200, and 1,000. […] All assays were performed in duplicate. Changes in fluorescence intensity reflected changes in the concentration of free cytosolic calcium. […] Referring to FIG. 3 and Table 4, the half-maximal effective concentration (EC50) was determined by non-linear regression analysis of the concentration-response curves generated with mean replicate values using Hill equation curve fitting (Cerep, I'Evescault, France).

[1] = Therapeutic index (NOAEL/NOEL): paleness, lethargy, ataxia observation in Sprague-Dawley rats (Example 7); type: in vivo; settings: for NOAEL at 24 h: male, Sprague-Dawley
Text: As used herein, the term “therapeutic index” (TI; also referred to as therapeutic ratio) is a quantitative measure of the relative safety of a drug. […] For the purpose of the present application, lethargy is a lack of energy and/or sleepiness which is visually observed in rats as a lack of mobility, such as a lack of mobility even in the presence of human activity. For the purpose of present specification, peripheral vasoconstriction is visually observed by a paleness of the extremities (e.g., skin of hands, feet, ears, and lips). In rats, peripheral vasoconstriction is determined by a side-by-side comparison of ear paleness in treated subjects (e.g., Sprague Dawley rats, a white rat with easily visualizable changes in redness/paleness) vs. untreated control subjects. The V1a agonist (or partial agonist) with a high therapeutic index will have a better safety profile than that with a low therapeutic index by providing a wider margin of safety for dosing during the treatment of the disease. This NOAEL/NOEL ratio, being a quantitative measure of the relative safety, is a comparison of the amount of a therapeutic agent that causes the therapeutic effect (useful effect, vasoconstriction for the purpose of the present specification) to the amount that causes toxicity. A V1a agonist that causes severe vasoconstriction will affect not only the peripheral vessels, with several layer of smooth muscles, but also other vessels present in other organs (e.g., heart, lungs, kidney, brain) and this will result in observed lethargy and eventually ataxia. A partial agonist is less likely to reach such an extreme level of vasoconstriction and is believed to have a higher therapeutic index.
In this study, 8 to 10 weeks male Sprague-Dawley rats (Charles River; Wilmington, MA) under isoflurane anesthesia (n=3 or 6) were intravenously (IV) or subcutaneously (SC) injected or administered with various test articles. Prior to administration of test articles, the injection area was clipped free of fur, to allow for clear visualization of the dose site, and animal weight was measured and recorded. Animals were housed two per cage. […] Lethargy is when the animal eyes cannot fully open and is associated deep breathing and limited of movement even in the presence of human.

[2] = S.C., at the Marked adverse effect dose
[3] = S.C., at the Mild adverse effect dose
[4] = in vivo, sc, S.C., rat, read-out: Highest dose with no-observed adverse effect level without lethargy (NOAEL)
[5] = FIG. 2 / FIG. 3 legend, n=2, read-out: EC50 for V1a receptor

Structure (SMILES)	EC50 (V1a receptor; Table 3, cells printed in μM, read-out: Estimated V1a EC50, n = 2)	Emax (V1a receptor; Table 3, n = 2)	Paleness (Duration, hrs; SD) [1, 2]	Paleness (Duration, hrs; SD) [1, 3]	Paleness (Duration, hrs; SD) ([1]; S.C., at the NOAEL dose)	Paleness (Duration, hrs; SD) ([1]; S.C., at the NOEL dose)	Highest dose with no-observed effect level or paleness (NOEL) ([1]; S.C., rat)	NOAEL/NOEL (therapeutic index) ([1]; S.C., rat)	NOAEL [1, 4]	Ataxia (duration, hrs; SD) ([1]; rat, in vivo, sc)	Marked adverse effect (Lowest dose first showed Ataxia) ([1]; rat, in vivo, sc)	Mild adverse effect (Lowest dose first showed Lethargy) ([1]; rat, in vivo, sc)	EC50 (V1a receptor; [5])	NOAEL at 24 h [1, 4]	Emax (V1a receptor; Table 4, n = 2)
NC[C@H](NC(=O)[C@@H]1CCCN1C(=O)[C@@H]1CSSCCC(=O)N[C@@H](Cc2ccc(O)cc2)C(=O)N[C@@H](Cc2ccccc2)C(=O)N[C@@H](CCCC(N)=O)C(=O)N[C@@H](CC(N)=O)C(=O)N1)C(=O)NCC(N)=O [SEQ ID NO. 17, Mpa-Tyr-Phe-Hgn-Asn-Cys-Pro-Dap-Gly-NH2] ([Mpa]YF[Aad](NH2)NCP[Dap]G-NH2; disulfide 1-6)	> 10 µM	3.5%	(>6.18)* hrs	(>5.92)* hrs	(6.11 ± 0.07) hrs	None observed	0.014 mg/kg	34	0.478 mg/kg	None observed	>9.95 mg/kg	4.78 mg/kg	–	–	–
NCC(=O)NCC(=O)NCC(=O)NCCCC[C@H](NC(=O)[C@@H]1CCCN1C(=O)[C@@H]1CSSCCC(=O)N[C@@H](Cc2ccc(O)cc2)C(=O)N[C@@H](Cc2ccccc2)C(=O)N[C@@H](CCCC(N)=O)C(=O)N[C@@H](CC(N)=O)C(=O)N1)C(=O)NCC(N)=O [SEQ ID NO. 10, Mpa-Tyr-Phe-Hgn-Asn-Cys-Pro-Lys(X)a-Gly-NH2; (X)a = (Gly)3]	–	32.9%	(6.4 ± 0.07) hrs	(6.27 ± 0.13) hrs	(5.65 ± 0.4) hrs	None observed	0.0015 mg/kg	100	–	–	1.5 mg/kg	0.5 mg/kg	0.0535 µM	0.15 mg/kg	–
NCC(=O)NCC(=O)NCC(=O)NCC(=O)NCC(=O)NCC(=O)NCC(=O)NCC(=O)NCC(=O)NCCCC[C@H](NC(=O)[C@@H]1CCCN1C(=O)[C@@H]1CSSCCC(=O)N[C@@H](Cc2ccc(O)cc2)C(=O)N[C@@H](Cc2ccccc2)C(=O)N[C@@H](CCC(N)=O)C(=O)N[C@@H](CC(N)=O)C(=O)N1)C(=O)NCC(N)=O [SEQ ID NO. 23, Mpa-Tyr-Phe-Gln-Asn-Cys-Pro-Lys(X)a-Gly-NH2; (X)a = (Gly)9]	–	–	(>6.46)* hrs	(6.23 ± 0.05) hrs	(>5.09)* hrs	None observed	0.0015 mg/kg	333	–	–	5.0 mg/kg	1.5 mg/kg	0.0126 µM	0.5 mg/kg	55.9%
